# Measured values as given in patent US5318970A, “Isoxazole compounds, pharmaceutically acceptable salts thereof and medical uses thereof” (Taiho Pharmaceutical Co., Ltd., priority 1990, dated 1994).
# Tests used:
# Cyclooxygenase = Cyclooxygenase inhibitory effect (14C-arachidonic acid to prostaglandin E2, seminal vesicular gland microsomes); assay type: biochemical; settings: prostaglandin E2 by thin layer chromatography
# Experimental: (1) Cyclooxygenase Inhibitory effect
# This assay was carried out by the method described in Russell J. Taylor et al., Biochem. Pharmacol., 25, 2479-2484 (1976).
# ^14 C-arachidonic acid was reacted with seminal vesicular gland microsomes and the test drugs at various concentrations over a predetermined period of time and the obtained prostaglandin E2 was separated by thin layer chromatography. The radioactivity of prostaglandin E2 was determined by liquid scintillation counter. The IC50 values were calculated by the comparison with the radioactivity of the control.
# 5-Lipoxygenase = molecular target: T1, 5-Lipoxygenase (Cavia porcellus, UniProt A0A286X958); assay: 5-Lipoxygenase inhibitory effect (14C-arachidonic acid to 5-hydroxyeicosatetraenoic acid, cytosol of polymorphonuclear leukocytes); assay type: biochemical; settings: guinea pig polymorphonuclear leukocyte cytosol; 5-hydroxyeicosatetraenoic acid by thin layer chromatography
# T1 construct: the polymorphonuclear leukocytes were collected and the cytosol fraction was obtained as an enzyme source; endogenous in cells; host or cells: guinea pig peritoneal polymorphonuclear leukocytes (casein-elicited), cytosol fraction
# T1 sequence (A0A286X958 1-674): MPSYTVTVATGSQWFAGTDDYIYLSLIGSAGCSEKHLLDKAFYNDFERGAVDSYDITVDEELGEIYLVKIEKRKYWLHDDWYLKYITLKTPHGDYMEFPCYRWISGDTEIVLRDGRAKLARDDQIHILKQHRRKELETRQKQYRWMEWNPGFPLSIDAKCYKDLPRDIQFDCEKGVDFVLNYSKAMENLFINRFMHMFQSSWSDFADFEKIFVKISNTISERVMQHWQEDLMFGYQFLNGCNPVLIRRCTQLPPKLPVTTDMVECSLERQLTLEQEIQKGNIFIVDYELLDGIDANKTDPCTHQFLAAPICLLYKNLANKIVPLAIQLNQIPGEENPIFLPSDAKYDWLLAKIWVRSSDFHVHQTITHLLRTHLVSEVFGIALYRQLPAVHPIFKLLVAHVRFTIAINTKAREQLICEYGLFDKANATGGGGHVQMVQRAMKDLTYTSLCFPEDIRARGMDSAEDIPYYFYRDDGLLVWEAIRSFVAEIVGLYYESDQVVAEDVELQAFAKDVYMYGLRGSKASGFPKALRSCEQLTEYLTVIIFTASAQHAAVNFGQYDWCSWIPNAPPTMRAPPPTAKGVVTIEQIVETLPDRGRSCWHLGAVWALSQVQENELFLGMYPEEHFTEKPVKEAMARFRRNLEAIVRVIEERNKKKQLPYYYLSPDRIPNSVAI
# Experimental: (2) 5-Lipoxygenase inhibitory effect
# The assay was carried out by the method described in Kenkichi Ochi et al., J. Biol. Chem., 258, 5754-5758 (1983).
# Casein was injected into the abdominal cavity of a guinea pig, and the polymorphonuclear leukocytes were collected and the cytosol fraction was obtained as an enzyme source. ^14 C-arachidonic acid was reacted with the enzyme and the test drugs at various concentrations over a predetermined period of time. The obtained 5-hydroxyeicosatetraenoic acid was separated by thin layer chromatography and the radioactivity was determined. The IC50 values were calculated by the comparison with the radioactivity of the control.
SMILES,IC50 (Cyclooxygenase) [nM],IC50 (5-Lipoxygenase) [nM]
COc1ccc(-c2noc(CC(=O)NCCN3CCN(CCCCCCCCCCO)CC3)c2-c2ccc(OC)cc2)cc1 [Compound 6],121,1800
COc1ccc(-c2noc(CC(=O)NC(CN3CCN(CCCCCCCCCCO)CC3)c3ccccc3)c2-c2ccc(OC)cc2)cc1 (stereo not drawn) [Compound 7],146,2500
CCCCCCCCCCN1CCN(C(=O)CNC(=O)Cc2onc(-c3ccc(OC)cc3)c2-c2ccc(OC)cc2)CC1 [Compound 8],66,5900
